Reference: patent US9107919B2, “Pharmaceutical compositions comprising imidazoquinolin(amines) and derivatives thereof suitable for local administration” (priority 2009, dated 2015)
Values after ≈ are worked out from the molar mass of the structure shown.

Columns and labels:
[1] = Toxicity of intravesical imiquimod in pigs (well-being, blood, bladder histology); format: in vivo, pig
Protocol: Animal procedures were performed according to the protocol approved by the Institutional Animal Care and Use Committee (IACUC, Radboud University Nijmegen Medicai Centre, The Netherlands) and in compliance with national and European regulations. Female pigs (Dutch Landrace) were used for this study. The urogenital tract of the pig closely resembles the human urogenital system, and the shape of the penis and the preputial diverticulum prevent transurethral catheterization of a male pig. The sows were housed in special swine stainless steel battery cages and fed with universal swine food. The pigs were divided into four groups of six animals. Experimental procedures were performed under general anesthesia. […]
Body temperature was measured rectally before and 1, 8 and 24 hours and one week after starting treatment. The well being of the animals was monitored by experienced staff by a selected protocollary list of possible signs and symptoms of toxicity before the experiment, just after the instillation and just before cystectomy.
24 hours after treatment three animals per group were sacrificed and cystectomised and 7 days after treatment the remaining animals underwent the same procedure. […] Material was embedded in paraffin, sectioned, and stained with H&E. The slides were evaluated for signs of inflammation and allergic reaction in submucosa and mucosa. […]

[2] = Imiquimod solubility in different solvent systems; format: physicochemical
Protocol: The dispersions have been centrifuged at 10,000 rpm for 10 minutes and the liquid phases collected and stored at room temperature until analysed. The imiquimod concentration in these solutions was spectrophotometrically (λ=319 nm) determined after appropriated dilution.

[3] = Imiquimod solubility in glacial acetic acid and buffers (HPLC/UV); format: physicochemical
Protocol: The solubility was experimentally determined weighing 1200 mg of drug, adding 10 ml of glacial acetic acid and gently shaking the dispersion for 24 hours. This sample, after filtration (0.22 μm Millipore membrane filter) was analyzed by HPLC for the imiquimod content and its pH was measured.
Imiquimod (738 mg) was initially dissolved in glacial acetic acid (10 ml). A volume of this solution was appropriately diluted with phosphate buffer pH 7.0 (0.1 M), citrate buffer pH 6.0 (0.1 M) or acetate buffer pH 5.0 (0.1 M) to prepare systems containing 2.0% of drug. The samples, after filtration by 0.22 μm Millipore membrane filter, were spectrophotometrically and chromatographically analyzed for the imiquimod content. The pH was determined.

[4] = Pharmacokinetics of intravesical imiquimod in pigs (plasma, urine); format: in vivo, pig; conditions: female, Dutch Landrace, other: intravesical instillation, 50 mL of imiquimod 0.5% solution
Protocol: Female pigs (Dutch Landrace) were used for this study. […] The pigs were divided into four groups of six animals. Experimental procedures were performed under general anesthesia. Premedication contained a mixture of 10 mg/kg ketamine and 0.5 to 1.0 mg/kg midazolam i.m. in one shot. Sedation maintenance was done by the same mixture in half the dosage every 45 minutes. The bladder was emptied without suction trauma prior to the start of treatment (via 12 French Foley catheter) and 50 mL of the study drug was instilled intravesically. […] The catheter was clamped and the instillation fluid was retained in the bladder for 60 minutes, after which the bladder was emptied. The bladder was not rinsed after emptying.
Blood samples for pharmacokinetic analysis and cytokine measurement were collected in 4 mL lithium heparin tubes with gel divider before instillation of the study drug and 15, 30, 60, 120, 240 and 480 minutes after the beginning of drug instillation and also just before cystectomy. The samples were transferred on ice to the laboratory for plasma processing within 30 minutes. […]
The post-treatment evacuated bladder content and the evacuated urine just before necropsy were collected for analysis of imiquimod concentration. […] Imiquimod concentrations in plasma and urine was determined by CHIMAN s.r.1. […]

[5] = Preliminary solubility tests of imiquimod (visual inspection); format: physicochemical
Protocol: 48 mg of imiquimod was weighed and added of hydrochloric acid solutions at different concentrations: in particular 48.2 mg imiquimod were treated with 8 ml hydrochloric acid 0.1 N, 48.6 mg imiquimod with 9 ml hydrochloric acid 0.2 N and 48.4 mg imiquimod with 8 ml hydrochloric acid 2 N. After vortexing for 5 minutes, the samples were visually inspected.
A weighed amount of drug (48.2 mg) was dissolved under agitation in 2 ml glacial acetic acid. After complete solubilisation a weighed aliquot of imiquimod (150 mg) was added to this solution in order to visually evaluate the maximum concentration of dissolved drug.
The solubility of imiquimod at different pH values was determined. Two different procedures were used. The drug was dispersed in the buffer (without acetic acid as co-solvent). 72 mg imiquimod were dispersed with 10 ml citrate buffer, 155 mg imiquimod in 10 ml phosphate buffer and 192 mg in 10 ml acetate buffer. After vortexing for 5 minutes, each sample was visually inspected.
A visual inspection of the systems was carried out.

[6] = cited from earlier work
[7] = Imiquimod diffusion/release, Franz cell with cellulose acetate membrane; format: physicochemical; conditions: 0.1 M lactic acid solution, 37° C., first hour
Protocol: The imiquimod diffusion/release experiments have been performed with Franz cells with an effective diffusion area of 1.76 cm^2 and a receiving compartment volume of 14 ml: the donor compartment contained about 2 g of gel formulation, while the receiving one was filled with 0.1 M lactic acid solution (pH=3.5). Between the two compartments, a cellulose acetate membrane (MWCO=23000) was interposed. The experiments were carried out at 37° C. using a re-circulating bath and the fluid in the receptor chamber was stirred continuously at 300 rpm.
At prefixed time intervals, the receiving phase was completely withdrawn and substituted by fresh acid solution. The receiving solution was submitted to UV analysis for imiquimod.

[8] = Solubility of imiquimod in glycerol or propylene glycol; format: physicochemical; conditions: for imiquimod concentration in solution: 120° C. 24 h, then water added
Protocol: Imiquimod was weighed (100 mg) and added of glycerol or propylene glycol to a volume of 10 ml. After shaking (at 120° C. for 24 hours) and cooling, 10 ml of water were added: the dispersions were filtered and the imiquimod amount in the liquid phases was determined. […] When propylene glycol was used the pH was 3.03 and the concentration of imiquimod in solution was 0.02%.

[9] = Solubility of imiquimod in short-chain acids, cyclodextrin and surfactants (spectrophotometry); format: physicochemical
Protocol: Some inorganic and organic acids were considered as potential solubilizers of the drug. 100 mg imiquimod were dissolved in 10 ml of phosphoric acid 0.1 M, succinic acid 0.1 M, citric acid 0.1 M, acetic acid 0.01 M, 0.05 M, 0.1 M and lactic acid 0.01 M, 0.05 M, 0.088 M, and 0.1 M. These systems, after filtration, were spectrophotometrically analyzed for imiquimod and their pH was measured.
Exactly weighed amounts of imiquimod (200 mg) and hydroxypropyl-β-cyclodextrin (HP-β-CD) (4000 mg) were dissolved in 10 ml of: • water • water at pH 5.0 (corrected with HCl) • water at pH 3.0 (corrected with HCl) • lactic acid solution (0.1 M)
After shaking for 24 hours and filtration (0.22 μm Millipore membrane filter) the solubilised imiquimod was spectrophotometrically determined. The solution pH was also measured.
Imiquimod (200 mg) was weighed and mixed with different amounts of surfactants (Tween 20, Tween 80, Cremophor EL or Pluronic F-68) in order to prepare formulations containing 0.5, 2.5 and 5% of surface active agent. Each mixture was added to 10 ml of lactic acid (0.1 M), gently shaken for 24 hours, filtered and analyzed by spectrophotometry and submitted to pH measurement.
The imiquimod present in solution in compositions prepared with different acids and surfactants is spectrophotometrically determined and is shown in Table 5 together with the pH value.

[10] = 27% glacial acetic acid/73% acetate buffer pH 5.0 (0.1 M), system with 2.0% drug
[11] = 27% glacial acetic acid/73% citrate buffer pH 6.0 (0.1 M), system with 2.0% drug
[12] = 27% glacial acetic acid/73% phosphate buffer pH 7.0 (0.1 M), system with 2.0% drug
[13] = dissolved in glacial acetic acid, then diluted with buffers
[14] = HP-β-CD 40.0% (water at pH 3.0 corrected with HCl)
[15] = HP-β-CD 40.0% (water at pH 5.0 corrected with HCl)
[16] = lactic acid 0.100 M + Cremophor EL 0.5%
[17] = lactic acid 0.100 M + Cremophor EL 2.5%
[18] = lactic acid 0.100 M + Cremophor EL 5.0%
[19] = lactic acid 0.100 M + HP-β-CD 40.0%
[20] = lactic acid 0.100 M + Pluronic F68 0.5%
[21] = lactic acid 0.100 M + Pluronic F68 2.5%
[22] = lactic acid 0.100 M + Pluronic F68 5.0%
[23] = lactic acid 0.100 M + Tween 20 0.5%
[24] = lactic acid 0.100 M + Tween 20 2.5%
[25] = lactic acid 0.100 M + Tween 20 5.0%
[26] = lactic acid 0.100 M + Tween 80 0.5%
[27] = lactic acid 0.100 M + Tween 80 2.5%
[28] = lactic acid 0.100 M + Tween 80 5.0%

CC(C)Cn1cnc2c(N)nc3ccccc3c21 [imiquimod, 1-isobutyl-1H-imidazo[4,5-c]quinolin-4-amine]
tolerability of intravesical administration [1]: well tolerated, causes no bladder wall toxicity
pH ([2]; 5% CD LA 01): 3.90
imiquimod solubility ([2]; 5% CD LA 01 (5% HP-β-CD in 0.1 M lactic acid)): 1.23 % w/w
imiquimod solubility ([2]; 5% CD-16% PF127 LA 01): 1.15 % w/w
pH ([2]; 5% CD-16% PF127 LA 01): 4.05
pH ([2]; 5% PF127 LA 01): 3.92
imiquimod solubility ([2]; 5% PF127 LA 01 (5% Poloxamer 407 in 0.1 M lactic acid)): 1.19 % w/w
pH ([2]; 15% CD LA 01): 4.03
imiquimod solubility ([2]; 15% CD LA 01 (15% HP-β-CD in 0.1 M lactic acid)): 1.37 % w/w
imiquimod solubility ([2]; 15% CD-16% PF127 LA 01): 1.22 % w/w
pH ([2]; 15% CD-16% PF127 LA 01): 4.25
imiquimod solubility ([2]; 16% PF127 LA 01): 1.10 % w/w
pH ([2]; 16% PF127 LA 01): 3.99
imiquimod solubility ([2]; 20% PF127 LA 01): 1.04 % w/w
pH ([2]; 20% PF127 LA 01): 4.16
imiquimod solubility ([2]; DMSO): 0.09 % w/w
imiquimod solubility ([2]; Glutamic acid 0.072M): 0.54 % w/w
pH ([2]; Glutamic acid 0.072M): 3.95
imiquimod solubility ([2]; Glycolic acid 0.1M): 0.68 % w/w
pH ([2]; Glycolic acid 0.1M): 3.82
pH ([2]; LA 0.025M): 3.93
imiquimod solubility ([2]; LA 0.025M, 25° C., 24 h): 0.33 % w/w
pH ([2]; LA 0.05M): 3.81
imiquimod solubility ([2]; LA 0.05M, 25° C., 24 h): 0.58 % w/w
pH ([2]; LA 0.1M): 3.73
imiquimod solubility ([2]; LA 0.1M, 25° C., 24 h): 1.18 % w/w
pH ([2]; LA 0.2M): 3.52
imiquimod solubility ([2]; LA 0.2M, 25° C., 24 h): 2.20 % w/w
imiquimod solubility ([2]; N-Methyl-pyrrolidone): 0.16 % w/w
imiquimod solubility ([2]; PEG 400): 0.03 % w/w
imiquimod solubility ([2]; Tartaric acid 0.1M): 0.01 % w/w
pH ([2]; Tartaric acid 0.1M): 2.48
solubility in pure acetic and lactic acid [3]: > 7.5 % w/v
pH ([3]; 27% glacial acetic acid/73% acetate buffer pH 5.0): 2.92
Imiquimod solubility, HPLC [3, 10]: 1.89 % w/v
Imiquimod solubility, UV [3, 10]: 1.92 % w/v
pH ([3]; 27% glacial acetic acid/73% citrate buffer pH 6.0): 3.20
Imiquimod solubility, HPLC [3, 11]: 0.86 % w/v
Imiquimod solubility, UV [3, 11]: 0.72 % w/v
pH ([3]; 27% glacial acetic acid/73% phosphate buffer pH 7.0): 2.92
Imiquimod solubility, HPLC [3, 12]: 1.69 % w/v
Imiquimod solubility, UV [3, 12]: 1.55 % w/v
Imiquimod solubility, HPLC ([3]; 100% glacial acetic acid, 24 h shaking): 7.50 % w/v
concentration at 24 h ([4]; pig, urine, after 24 hours, all imiquimod groups, read-out: imiquimod levels in urine): < 5000 ng/mL
concentration at 8 h ([4]; plasma, after eight hours, any pig): < 2.1 ng/mL
solubility in buffers (visual) ([5]; citrate, phosphate, acetate buffer, without acetic acid): slightly soluble
appearance after dilution [5, 13]: clear, transparent solutions
pH of the systems [5, 13]: lower than 3.6
solubility ([5]; glacial (100%) acetic acid, organic solvent or mixture, thermodynamic from solid, room temperature): 100 mg/mL (≈ 416 mM)
solubility (visual) ([5]; hydrochloric acid 0.1 N, 0.2 N and 2 N): slightly soluble
solubility in glacial (100%) acetic acid ([5]; room temperature, visual): 10 % (w/v)
pKa [6]: about 4
flux of imiquimod through the artificial barrier [7]: 1.95e-06 g·cm^−2·s^−1
pH ([8]; glycerol system): 5.42
imiquimod concentration in solution ([8]; glycerol): 0.02%
pH ([8]; propylene glycol system): 3.03
imiquimod concentration in solution ([8]; propylene glycol): 0.02%
imiquimod in solution [9, 14]: 0.655 % w/v
pH [9, 14]: 3.05
imiquimod in solution [9, 15]: 0.143 % w/v
pH [9, 15]: 5.17
imiquimod in solution ([9]; HP-β-CD 40.0%, no acid (water)): 0.004 % w/v
pH ([9]; HP-β-CD 40.0%, no acid (water)): 7.09
imiquimod in solution ([9]; acetic acid 0.010 M): 0.070 % w/v
pH ([9]; acetic acid 0.010 M): 4.37
imiquimod in solution ([9]; acetic acid 0.050 M): 0.220 % w/v
pH ([9]; acetic acid 0.050 M): 4.08
imiquimod in solution ([9]; acetic acid 0.100 M): 0.430 % w/v
pH ([9]; acetic acid 0.100 M): 3.97
imiquimod in solution ([9]; citric acid 0.100 M): 0.010 % w/v
pH ([9]; citric acid 0.100 M): 2.10
imiquimod in solution ([9]; lactic acid 0.010 M): 0.130 % w/v
pH ([9]; lactic acid 0.010 M): 4.20
imiquimod in solution ([9]; lactic acid 0.050 M): 0.530 % w/v
pH ([9]; lactic acid 0.050 M): 3.90
imiquimod in solution ([9]; lactic acid 0.088 M): 0.840 % w/v
pH ([9]; lactic acid 0.088 M): 3.71
imiquimod in solution ([9]; lactic acid 0.100 M): 0.980 % w/v
pH ([9]; lactic acid 0.100 M): 3.61
imiquimod in solution [9, 16]: 0.881 % w/v
pH [9, 16]: 3.90
imiquimod in solution [9, 17]: 0.989 % w/v
pH [9, 17]: 3.87
imiquimod in solution [9, 18]: 0.969 % w/v
pH [9, 18]: 3.88
imiquimod in solution [9, 19]: 1.141 % w/v
pH [9, 19]: 4.46
imiquimod in solution [9, 20]: 1.048 % w/v
pH [9, 20]: 3.85
imiquimod in solution [9, 21]: 1.088 % w/v
pH [9, 21]: 3.87
imiquimod in solution [9, 22]: 0.972 % w/v
pH [9, 22]: 3.89
imiquimod in solution [9, 23]: 0.945 % w/v
pH [9, 23]: 3.88
imiquimod in solution [9, 24]: 1.004 % w/v
pH [9, 24]: 3.86
imiquimod in solution [9, 25]: 1.001 % w/v
pH [9, 25]: 3.89
imiquimod in solution [9, 26]: 0.997 % w/v
pH [9, 26]: 3.83
imiquimod in solution [9, 27]: 1.009 % w/v
pH [9, 27]: 3.82
imiquimod in solution [9, 28]: 0.872 % w/v
pH [9, 28]: 3.82
imiquimod in solution ([9]; phosphoric acid 0.100 M): 0.159 % w/v
pH ([9]; phosphoric acid 0.100 M): 1.80
imiquimod in solution ([9]; succinic acid 0.100 M): 0.079 % w/v
pH ([9]; succinic acid 0.100 M): 2.94
